Blank lines part the entries; values can stand above or below the compound they belong to.
Assay: solvent given as SMILES

Structure (SMILES): CC1=[N+]2C(=C(c3ccccc3)c3ccc(C)n3[B-]2(F)F)C=C1
- fluorescence lifetime (in C1CCCCC1): 1.94 ns
- fluorescence lifetime (in CC#N): 1.33 ns
- fluorescence lifetime (in CCOC(C)=O): 1.71 ns
- fluorescence lifetime (in CO): 1.46 ns
- fluorescence lifetime (in Cc1ccccc1): 2.65 ns
- fluorescence lifetime (in ClC(Cl)Cl): 2.65 ns

Structure (SMILES): N#Cc1coc2ccccc2c1=O
- fluorescence lifetime (in C1CCOC1): 0.93 ns
- fluorescence lifetime (in C1COCCO1): 3.6 ns
- fluorescence lifetime (in CC#N): 2.17 ns
- fluorescence lifetime (in CC(C)O): 1.86 ns
- fluorescence lifetime (in CCCCO): 0.96 ns
- fluorescence lifetime (in CCCO): 2.03 ns
- fluorescence lifetime (in CCOC(C)=O): 1.05 ns
- fluorescence lifetime (in CN(C)C=O): 1.77 ns
- fluorescence lifetime (in CO): 0.59 ns
- fluorescence lifetime (in CS(C)=O): 1.92 ns
- fluorescence lifetime (in ClC(Cl)Cl): 2.54 ns
- fluorescence lifetime (in O): 1.36 ns

Structure (SMILES): Cc1cc(-c2ccc(-n3c4ccccc4c4ccccc43)cc2)nc(-c2ccc(-c3ccccc3)cc2)n1
- fluorescence lifetime (in C1CCOC1): 4.02 ns
- fluorescence lifetime (in CN(C)C=O): 6.66 ns
- fluorescence lifetime (in Cc1ccccc1): 2.27 ns
- fluorescence lifetime (in ClC(Cl)Cl): 3.93 ns

Structure (SMILES): CCCCCCn1c2ccccc2c2cc3c4cc5c6ccccc6n(CCCCCC)c5cc4c4cc5c(C)cc(=O)oc5cc4c3cc21
- fluorescence lifetime (in ClC(Cl)Cl): 3.1 ns

Structure (SMILES): Cc1ccc(-c2ccccc2)cc1
- fluorescence lifetime (in C1CCCCC1): 20 ns

Structure (SMILES): Nc1cc(N)cc(-c2nc3ccccc3s2)c1
- fluorescence lifetime (in C1CCCCC1): 4.63 ns
- fluorescence lifetime (in C1COCCO1): 4.09 ns
- fluorescence lifetime (in CC#N): 4.14 ns
- fluorescence lifetime (in CC(C)O): 6.4 ns
- fluorescence lifetime (in CCOC(C)=O): 3.84 ns
- fluorescence lifetime (in CCOCC): 3.2 ns
- fluorescence lifetime (in CO): 2.07 ns
- fluorescence lifetime (in O): 1.32 ns

Structure (SMILES): O=Cc1ccc(C#CC(C#Cc2ccc(C=O)o2)=Cc2ccc(C=C(C#Cc3ccc(C=O)o3)C#Cc3ccc(C=O)o3)cc2)o1
- fluorescence lifetime (in ClC(Cl)Cl): 0.6 ns

Structure (SMILES): CCOC(=O)c1ccc2c(c1)sc1c3ccc(C(=O)OCC)cc3sc21
- fluorescence lifetime (in CCCO): 0.35 ns

Structure (SMILES): CSc1ccc(C#Cc2ccc(C#Cc3ccc(C#Cc4ccccc4C#N)cc3C#N)cc2C#N)cc1
- fluorescence lifetime (in ClC(Cl)Cl): 1.29 ns

Structure (SMILES): N#Cc1c(-n2c3ccccc3c3ccccc32)c(C#N)c(-n2c3ccccc3c3ccccc32)c(-n2c3ccccc3c3ccccc32)c1-n1c2ccccc2c2ccccc21
- fluorescence lifetime (in Cc1ccccc1): 17.8 ns

Structure (SMILES): CCCCCCCCCCCn1cccc1C1=[N+]2C(=Cc3c(C)cc(C)n3[B-]2(F)F)c2ccccc21
- fluorescence lifetime (in ClCCl): 8.89 ns

Structure (SMILES): COc1ccc(-c2cc(-c3ccc(C)cc3)nc3c(C#N)c(N4CCCC4)nc(N)c23)cc1
- fluorescence lifetime (in CC#N): 11.7 ns
- fluorescence lifetime (in CC(C)=O): 11.3 ns
- fluorescence lifetime (in CC(C)O): 11.7 ns
- fluorescence lifetime (in CO): 10.3 ns
- fluorescence lifetime (in ClC(Cl)Cl): 13.1 ns
- fluorescence lifetime (in ClCCl): 13.3 ns
- fluorescence lifetime (in c1ccccc1): 12 ns

Second part, the compound after the results:

- fluorescence lifetime (in ClC(Cl)Cl): 2.4 ns
Structure (SMILES): c1ccc(-c2nc(-c3ccc(N4CCCC4)cc3)cc(-c3ccc4ccccc4c3)n2)cc1

- fluorescence lifetime (in ClC(Cl)Cl): 4.9 ns
Structure (SMILES): COc1ccc(N(c2ccc(OC)cc2)c2ccc(-c3ccc(-c4ccc(-c5ccc(-c6ccc(N(c7ccc(OC)cc7)c7ccc(OC)cc7)cc6)s5)c5nsnc45)s3)cc2)cc1

- fluorescence lifetime (in ClCCl): 6.7 ns
Structure (SMILES): c1ccc(C(=C(c2ccccc2)c2ccc(-c3ccc(-c4nc5c(-c6ccc(-c7ccc(C(=C(c8ccccc8)c8ccccc8)c8ccccc8)cc7)cc6)sc(-c6ccc(-c7ccc(C(=C(c8ccccc8)c8ccccc8)c8ccccc8)cc7)cc6)c5nc4-c4ccc(-c5ccc(C(=C(c6ccccc6)c6ccccc6)c6ccccc6)cc5)cc4)cc3)cc2)c2ccccc2)cc1

- fluorescence lifetime (in CCCCCCC): 102 ns
Structure (SMILES): c1ccc(Nc2nc(Nc3ccccc3)nc(Nc3cc4ccc5cccc6ccc(c3)c4c56)n2)cc1

- fluorescence lifetime (in ClCCl): 1.23 ns
Structure (SMILES): c1ccc2c(c1)OP1(=NP(Oc3ccc4ccc5cccc6ccc3c4c56)(Oc3ccc4ccc5cccc6ccc3c4c56)=NP(Oc3ccc4ccc5cccc6ccc3c4c56)(Oc3ccc4ccc5cccc6ccc3c4c56)=N1)Oc1ccccc1-2

- fluorescence lifetime (in ClCCl): 2.6 ns
Structure (SMILES): Cc1ccc(C2=Nc3cccc4[n+]3[B-](c3ccccc3)(N2)NC(c2ccc(C)cc2)=N4)cc1

- fluorescence lifetime (in C1CCOC1): 2.82 ns
- fluorescence lifetime (in CC(C)O): 1.8 ns
- fluorescence lifetime (in CO): 1.5 ns
- fluorescence lifetime (in CS(C)=O): 2.2 ns
- fluorescence lifetime (in ClC(Cl)Cl): 0.96 ns
- fluorescence lifetime (in ClCCl): 3.82 ns
Structure (SMILES): COc1ccccc1-c1c(-c2ccccc2O)nc(-c2ccc(C(F)(F)F)cc2)n1-c1ccc(C)cc1

- fluorescence lifetime (in ClC(Cl)Cl): 3.5 ns
Structure (SMILES): Cc1cc(C)c(C2=C3C=CC=[N+]3[B-]3(c4ccc5ccc6cccc7ccc4c5c67)Oc4cc(O)cc5c6ccc(C)cc6c6cc2n3c6c45)c(C)c1 (configuration not stated)
